Where two headings read alike, the source gives them in different places.
Legend:
[1] = test system: Salmonella typhimurium TA 100; assay: Mutagenicity, reversion assay, TA 100; assay type: cell-based
Protocol: (§1) (ii) The strains TA 98 and TA 100 (both are histidine requiring) of Salmonella typhimurium were used in the reversion assay.
(§2) Into 2 ml of a soft agar culture medium (the medium itself contains 6 g of sodium chloride and 6 g of agar in 1000 ml of distilled water) to which one tenth by volume of an aqueous solution of 0.5 mM of biotin and 0.5 mM of histidine had been added, 0.1 ml of the bacterial suspension and 0.1 ml of an aqueous solution of the present substance were admixed and the mixture was layered on the minimum agar culture medium. After 2 days of incubation at 37° C., the number of revertant colonies was counted. Furylfuramide (AF-2) was used as the positive control.

[2] = test system: Salmonella typhimurium TA 98; assay: Mutagenicity, reversion assay, TA 98; assay type: cell-based
Protocol: as §1, §2

[3] = Acute oral toxicity (Litchfield-Wilcoxon); conditions: in vivo, mouse, 7 days
Protocol: The acute oral toxicity of the present substances were examined by using groups of ICR-JCL mouse and orally administering each of the representatives of present substances forcibly as an aqueous solution in distilled water or as an aqueous suspension also in distilled water at predetermined dosages, respectively. After observing the toxicological symptoms, if any, for 6 days, and recording the mortality until 7th day of the administration, LD50 (acute oral) was calculated by the method of Litchfield-Wilcoxon, and autopsy was carried out on dead mice and live mice to obtain informations.

dog's stomach = assay type: in vivo, Beagle dog
Protocol: Five grams of the present substance (each of Specimens Nos. 1, 2, 3, 4, 5, 6, 7, 8, 9, 10 and 11) and of aspirin were respectively administered to each Beagle of body weight of 9 to 12 kg as an aqueous suspension in distilled water of adjusted pH of 3, and after 90 min of the administration, the state of hemorrhage in the dog's stomach was examined.

Ehrlich cancer = assay: Cancer proliferation and PGE in the cancer cells (Ehrlich); assay type: in vivo, C57BL/6 mouse; conditions: 100 mg/kg i.p. every other day, 14th day; for Weight of cancer: control 1.30; for Content of PGE in the cancer: control 1.77
Protocol: Following the same method as in Example 12, the anti-cancer action against transplanted Ehrlich cancer in C57BL/6 mouse, and the amount of PGE in the cancer cells in proliferation in the living body of the mouse were examined in the cases where each one compound of the present invention, Specimens Nos. 1, 2, 3, 4, 5, 6, 8, 9, 10 and 11 was intraperitoneally administered every other day from the next day of the transplantation in total 6 times at a dosage of 100 mg/kg.
The results of determination of the weight of cancer extirpated from the sacrificed mouse on 14th day of the transplantation of the cancer cells, 1×10^6 in number per animal, and content of PGE of the extirpated cancer are shown in the following Table 13: […]

male Sprague-Dowley rats [4] = assay: Leakage of dye-staff after skin stimulation with histamine and PGE1; assay type: in vivo; conditions: challenge agents only, no present substance
Protocol: To the three groups of male Sprague-Dowley rats of the total six groups, the respective present substances (Specimens Nos. 4, 7 and 8) were forcibly administered by oral route at the rate of 1000 mg/kg, the other three groups being administered nothing at this time. After 60 min of the administration, a mixture of PGE1 (2.5×10^-11 mol/animal) and histamine (2×10^-8 mol/animal) was intracutaneously injected under light […] into the shaved skin of an abdominal part of four groups of the rats including three groups administered with the present substance.

Bacillus subtilis M 45 = assay: Mutagenicity, rec-assay, strain M 45; assay type: cell-based; conditions: 10 μg/disk, negative control
Protocol: (§3) As the first stage, the present substances were tested by rec-assay (i), and as the second stage, they were tested by reversion assay (ii).
(§4) (i) A strain of Bacillus subtilis M 45, a defectant of recombination repair, and a wild strain of Bacillus subtilis H 17 keeping recombination repair activity were inoculated to make their own streaks not crossed at the start on a B-2 agar culture plate (made by dissolving 10 g of meat extract, 10 g of polypeptone, 5 g of sodium chloride and 15 g of agar in 1000 ml of distilled water at pH 7.0). Then, a paper disc of 8 mm in diameter, which absorbed 0.04 ml of an aqueous solution of the present substance in sterilized water was put on the surface of the agar plate so as to cover the starting point of the above-mentioned streaks of bacterial culture. The inoculated B-2 agar plate was kept at 37° C. for a night and the length of growth-inhibited region was measured.

Bacillus subtilis H 17 = assay: Mutagenicity, rec-assay, strain H 17; assay type: cell-based; conditions: 10 μg/disk, negative control
Protocol: as §3, §4

male Sprague-Dowley rats [5] = assay: Foot-oedema induced by carrageenin and PGE1; assay type: in vivo; conditions: challenge agents only, no present substance; 60 min
Protocol: The three groups of male Sprague-Dowley rats of total six groups, the respective present substances, Specimens Nos. 4, 7 and 8 were administered forcibly by oral route at a rate of 1000 mg/kg, the other three groups of the same kind of rats being administered nothing at this time.
After 60 min of the administration, 0.1 ml of an aqueous solution of carrageenin (1 mg) and PGE1 (0.1 μg) was injected onto the hind paw of the four groups of the rats including the three groups administered with the present substance. To one group of remaining two groups not administered with the present substance, 0.1 ml of an aqueous solution containing only carrageenin at 1% was injected, and to the other one group not administered with the present substance, an aqueous solution containing only PGE1 was injected.
The volume of the thus swollen foot of the groups of the thus treated rats was measured by the water-displacement method, and the results are shown in Table 17 by the increment of the volume of foot as compared to the volume of foot before the treatment as percentage.

Compound: NC(=O)C(=Cc1ccc([N+](=O)[O-])o1)c1ccco1 [Furylfuramide, reference compound]
- Number of revertant colonies TA 100 ([1]; 0.1 μg/plate, positive control): 911 number per plate
- Number of revertant colonies TA 98 ([2]; 0.1 μg/plate, positive control): 167 number per plate

Compound: O=C(O)c1ccccc1NC1O[C@H](CO)[C@H](O)[C@H](O)[C@H]1O (stereo partly drawn) [Specimen No. 1, Sodium o-aminobenzoate-N--D-galactoside]
- LD50 at 168 h [3]: 6100 mg/kg
- Number of revertant colonies TA 100 ([1]; 5,000 μg/plate, control 149): 151 number per plate
- Number of revertant colonies TA 98 ([2]; 5,000 μg/plate, control 13): 6 number per plate
- hemorrhage in the stomach (dog's stomach; dog, in vivo): no hemorrhage in the stomach was found
- Weight of cancer (Ehrlich cancer): 0.63 g
- Content of PGE in the cancer (Ehrlich cancer): 4.10 ng/g

Compound: NCCc1c[nH]cn1 [Histamine, histamine, reference compound]
- Absorbance at 620 nm (dye leakage) (male Sprague-Dowley rats [4]): 0.192

Compound: O=C(O)c1ccc(NC2O[C@H](CO)[C@@H](O)[C@H](O)[C@H]2O)cc1 (stereo partly drawn) [Specimen No. 5, Sodium p-aminobenzoate-N--D-glucoside]
- LD50 at 168 h [3]: > 15000 mg/kg
- Number of revertant colonies TA 100 ([1]; 5,000 μg/plate, control 149): 104 number per plate
- Number of revertant colonies TA 98 ([2]; 5,000 μg/plate, control 13): 11 number per plate
- hemorrhage in the stomach (dog's stomach; dog, in vivo): no hemorrhage in the stomach was found
- Weight of cancer (Ehrlich cancer): 0.70 g
- Content of PGE in the cancer (Ehrlich cancer): 3.20 ng/g

Compound: O=C(O)c1ccc(NC2O[C@H](CO)[C@H](O)[C@H](O)[C@H]2O)cc1 (stereo partly drawn) [Specimen No. 6, Sodium p-aminobenzoate-N--D-galactoside]
- LD50 at 168 h [3]: 14600 mg/kg
- Number of revertant colonies TA 100 ([1]; 5,000 μg/plate, control 149): 51 number per plate
- Number of revertant colonies TA 98 ([2]; 5,000 μg/plate, control 13): 7 number per plate
- hemorrhage in the stomach (dog's stomach; dog, in vivo): no hemorrhage in the stomach was found
- Weight of cancer (Ehrlich cancer): 0.65 g
- Content of PGE in the cancer (Ehrlich cancer): 3.66 ng/g

Compound: O=C(O)c1ccc(NC2OC[C@H](O)[C@H](O)[C@H]2O)cc1 (stereo partly drawn) [Specimen No. 10, Sodium p-aminobenzoate-N--L-arabinoside]
- LD50 at 168 h [3]: 10800 mg/kg
- Number of revertant colonies TA 100 ([1]; 5,000 μg/plate, control 149): 51 number per plate
- Number of revertant colonies TA 98 ([2]; 5,000 μg/plate, control 13): 3 number per plate
- hemorrhage in the stomach (dog's stomach; dog, in vivo): no hemorrhage in the stomach was found
- Weight of cancer (Ehrlich cancer): 0.70 g
- Content of PGE in the cancer (Ehrlich cancer): 4.14 ng/g

Compound: NC[C@H]1O[C@H](O[C@H]2[C@H](O)[C@@H](O[C@H]3O[C@H](CO)[C@@H](O)[C@H](N)[C@H]3O)[C@H](N)C[C@@H]2N)[C@H](O)[C@@H](O)[C@@H]1O [Kanamycin]
- Length of inhibition growth zone M 45 (Bacillus subtilis M 45): 5 mm
- difference (M 45 minus H 17) (Bacillus subtilis M 45): 1 mm
- Length of inhibition growth zone H 17 (Bacillus subtilis H 17): 4 mm

Compound: O=C(O)c1cccc(NC2O[C@H](CO)[C@@H](O)[C@H](O)[C@@H]2O)c1 (stereo partly drawn) [Specimen No. 3, Sodium m-aminobenzoate-N--D-mannoside]
- LD50 at 168 h [3]: > 10000 mg/kg
- Number of revertant colonies TA 100 ([1]; 5,000 μg/plate, control 149): 90 number per plate
- Number of revertant colonies TA 98 ([2]; 5,000 μg/plate, control 13): 6 number per plate
- hemorrhage in the stomach (dog's stomach; dog, in vivo): no hemorrhage in the stomach was found
- Weight of cancer (Ehrlich cancer): 0.74 g
- Content of PGE in the cancer (Ehrlich cancer): 4.23 ng/g

Compound: CC(=O)Oc1ccccc1C(=O)O [aspirin, reference compound]
- hemorrhage in the stomach (dog's stomach; 5 g, 90 min after administration): hemorrhage in the stomach was observed

Compound: CCCCC[C@H](O)/C=C/[C@H]1[C@H](O)CC(=O)[C@@H]1CCCCCCC(=O)O [PGE1, reference compound]
- Percentage increment of volume of foot (male Sprague-Dowley rats [5]): 9.3%
- Absorbance at 620 nm (dye leakage) (male Sprague-Dowley rats [4]): 0.066

Compound: O=C(O)c1ccc(NC2(CO)OC[C@@H](O)[C@@H](O)[C@@H]2O)cc1 (stereo partly drawn) [Specimen No. 9, Sodium p-aminobenzoate-N--D-fructoside]
- LD50 at 168 h [3]: > 10000 mg/kg
- Number of revertant colonies TA 100 ([1]; 5,000 μg/plate, control 149): 95 number per plate
- Number of revertant colonies TA 98 ([2]; 5,000 μg/plate, control 13): 5 number per plate
- hemorrhage in the stomach (dog's stomach; dog, in vivo): no hemorrhage in the stomach was found
- Weight of cancer (Ehrlich cancer): 0.80 g
- Content of PGE in the cancer (Ehrlich cancer): 4.32 ng/g

Compound: COC(=O)c1ccccc1NC1O[C@H](CO)[C@@H](O)[C@H](O)[C@@H]1O (stereo partly drawn) [Specimen No. 11, Methyl o-aminobenzoate-N--D-mannoside]
- LD50 at 168 h [3]: > 7500 mg/kg
- Number of revertant colonies TA 100 ([1]; 5,000 μg/plate, control 149): 95 number per plate
- Number of revertant colonies TA 98 ([2]; 5,000 μg/plate, control 13): 8 number per plate
- hemorrhage in the stomach (dog's stomach; dog, in vivo): no hemorrhage in the stomach was found
- Weight of cancer (Ehrlich cancer): 0.69 g
- Content of PGE in the cancer (Ehrlich cancer): 4.20 ng/g

Compound: C[C@@H]1OC(Nc2ccccc2C(=O)O)[C@H](O)[C@H](O)[C@H]1O (stereo partly drawn) [Specimen No. 2, Sodium o-aminobenzoate-N--L-rhamnoside]
- LD50 at 168 h [3]: 12500 mg/kg
- Number of revertant colonies TA 100 ([1]; 5,000 μg/plate, control 149): 61 number per plate
- Number of revertant colonies TA 98 ([2]; 5,000 μg/plate, control 13): 9 number per plate
- hemorrhage in the stomach (dog's stomach; dog, in vivo): no hemorrhage in the stomach was found
- Weight of cancer (Ehrlich cancer): 0.81 g
- Content of PGE in the cancer (Ehrlich cancer): 3.88 ng/g

Reference: patent US4440757A, “Pharmaceutical composition comprising derivative of aminobenzoic acid for regulating prostaglandin” (priority 1978, dated 1984)
